Experimental data taken from US20150079158A1, “METHOD TO STABILIZE LIPOSOME EMULSIONS FOR BIOCIDAL DELIVERY” (General Electric Company, priority 2012, published 2015).

Test: HPLC analysis of active degradation after accelerated storage
Assay type: physicochemical
Protocol: The degradation of the biocide-containing liposome emulsion can be qualitatively observed by the formation of an insoluble precipitate. Quantitatively, high pressure liquid chromatography (HPLC) analysis was used to determine actives concentrations for samples stored under accelerated storage conditions. The samples that passed 90 days at 35° C. or 30 days at 50° C. were taken to ambient temperature and analyzed. The stability of these liposome emulsions was determined as follows.
HPLC analysis was executed for active degradation of 5-chloro-2-methyl-4-isothiazolin-3-one and 2-methyl-4-isothiazolin-3-one in the samples after 90 days at 35° C. or 30 days at 50° C.

Cn1sccc1=O [2-methyl-4-isothiazolin-3-one]
active degradation (HPLC): less than 10%
